Peptide text beside a SMILES is read from it. * marks the point of attachment. Cbz = O=C(OCc1ccccc1)*
What was measured:
cyclin D1 = assay: Western blot analysis of cyclin D1 expression in MCF-7 cells; assay type: cell-based, human; conditions: for minimum concentration required for the complete ablation of cyclin D1 / effect of co-treatment on TG- and Δ2-TG-induced cyclin D1 ablation: 24 h; for minimum concentration required for the complete ablation of cyclin D1: 5% FBS; for effect of co-treatment on TG- and Δ2-TG-induced cyclin D1 ablation: with 40 μM TG or 30 μM Δ2-TG; for IC50: western blot data, read-out: IC50 for WB
Method: Western Blot Analysis. MCF-7 or MDA-MB-231 cells were seeded in 10% FBS-containing DMEM-F-12 for 24 h and treated with various agents as indicated. After individual treatments for 24 h, both the incubation medium and adherent cells in T-25 or T-75 flasks were scraped and collected by centrifugation at 2,000×g for 10 min. The pellets were recovered, placed on ice, and triturated with 20 to 50 μl of a chilled lysis buffer (M-PER® Mammalian Protein Extraction Reagent, Pierce, Rockford, Ill.) to which was added 1% protease inhibitor cocktail (set III, EMD Biosciences, Inc. San Diego, Calif.). After a 30 min-incubation on ice, the mixture was centrifuge at 16,100×g for 3 min. Two μl of the suspension was taken for protein analysis using the Bradford assay kit (Bio-Rad, Hercules, Calif.). To the remaining solution was added the same volume of 2× SDS-PAGE sample loading buffer (100 mM Tris-HCl, pH 6.8, 4% SDS, 5% β-mercaptoethanol 20% glycerol, and 0.1% bromophenol blue). The mixture was boiled for 10 min. Equal amounts of proteins were loaded onto 10% SDS-PAGE gels. After electrophoresis, protein bands were transferred to nitrocellulose membranes in a semi-dry transfer cell. The transblotted membrane was blocking with TBST [Tris-buffered saline (TBS) containing 0.1% Tween 20] containing 5% nonfat milk for 90 min, and the membrane was incubated with the appropriate primary antibody in TBST-5% nonfat milk at 4° C. overnight. After washing three times with TBST for a total of 45 min, the transblotted membrane was incubated with goat anti-rabbit or anti-mouse IgG-horseradish peroxidase conjugates (diluted 1:1000) for 1 h at room temperature and washed four times with TBST for a total of 1 h. The immunoblots were visualized by enhanced chemiluminescence.

MCF-7 cells = assay: MTT cell viability assay; assay type: cell-based; conditions: Homo sapiens, MCF7, cell viability data, read-out: IC50 for MTT
Method: Cell viability analysis. The effect of individual test agents on cell viability was assessed by using the MTT [3-(4,5-dimethylthiazol-2-yl)-2,5-diphenyl-2H-tetrazolium bromide] assay in six replicates. Cells were seeded and incubated in 96-well, flat-bottomed plates in DMEM-F12 media with 10% FBS for 24 h, and were exposed to various concentrations of test agents dissolved in DMSO (final DMSO concentration, 0.1%) in 5% FBS-supplemented DMEM-F12 medium. Controls received DMSO vehicle at a concentration equal to that of drug-treated cells. The medium was removed, replaced by 200 μl of 0.5 mg/ml of MTT in 10% FBS-containing RPMI-1640 medium, and cells were incubated in the CO2 incubator at 37° C. for 2 h. Supernatants were removed from the wells, and the reduced MTT dye was solubilized in 200 μl/well DMSO. Absorbance at 570 nm was determined on a plate reader.

Compound | IC50 (MCF-7 cells) | IC50 (cyclin D1) | further results
CC1(COc2ccc(CC3SC(=O)NC3=O)cc2)CCCCC1 (stereo not drawn) [CG, ciglitazone, reference compound] | – | – | minimum concentration required for the complete ablation of cyclin D1 (cyclin D1): 50 µM
O=C(Nc1ccccc1)c1cc([N+](=O)[O-])ccc1Cl [GW9962, reference compound] | – | – | effect of co-treatment on TG-mediated cyclin D1 down-regulation (cyclin D1; concentrations three orders of magnitude higher than the IC50 in PPARγ binding): did not prevent; effect on cyclin D1 expression (cyclin D1; high doses / comparable concentrations): no appreciable effect
CC(C)C[C@@H](C=O)NC(=O)[C@H](CC(C)C)NC(=O)[C@H](CC(C)C)NC(=O)OCc1ccccc1 [MG132, reference compound] (Cbz-Leu-Leu-Leu-aldehyde) | – | – | effect of co-treatment on Δ2-TG-6 cyclin D1 ablation (cyclin D1; FIG. 8C): could be blocked; effect of co-treatment on TG- and Δ2-TG-induced cyclin D1 ablation (cyclin D1): effective in rescuing
Cn1cc(C2=C(c3ccc(Cl)cc3Cl)C(=O)NC2=O)c2ccccc21 [SB216763, reference compound] | – | – | effect of co-treatment on TG- and Δ2-TG-induced cyclin D1 ablation (cyclin D1): could not rescue
Cc1c(C)c2c(c(C)c1O)CCC(C)(COc1ccc(CC3SC(=O)NC3=O)cc1)O2 (stereo not drawn) [TG, troglitazone, reference compound] | – | – | time of complete ablation of cyclin D1 (cyclin D1; 40 μM TG, 30 μM Δ2-TG): 24 h; minimum concentration required for the complete ablation of cyclin D1 (cyclin D1): 40 µM
C=CCOc1c(C)c(C)c2c(c1C)CCC(C)(COc1ccc(/C=C3\SC(=S)NC3=O)cc1)O2 (stereo not drawn) [TG-3] | 11 µM | 3.5 µM | –
C=CCOc1c(C)c(C)c2c(c1C)CCC(C)(COc1ccc(/C=C3\SC(=O)N(CC(=O)OC)C3=O)cc1)O2 (stereo not drawn) [TG-9] | > 50 µM | > 7.5 µM | –
Cc1c(C)c2c(c(C)c1OC/C=C/c1ccccc1)CCC(C)(COc1ccc(/C=C3\SC(=O)NC3=O)cc1)O2 (stereo not drawn) [TG-10] | 19 µM | > 7.5 µM | –
Cc1c(C)c2c(c(C)c1OC/C=C/c1ccccc1)CCC(C)(COc1ccc(/C=C3\SC(=O)NC3=O)cc1Br)O2 (stereo not drawn) [TG-11] | 28.5 µM | > 7.5 µM | –
Cc1c(C)c2c(c(C)c1OCc1ccccc1)CCC(C)(COc1ccc(/C=C3\SC(=O)NC3=O)cc1)O2 (stereo not drawn) [TG-12] | 16.7 µM | – | –
Cc1c(C)c2c(c(C)c1OC(=O)CCC(=O)O)CCC(C)(COc1ccc(/C=C3\SC(=O)NC3=O)cc1)O2 (stereo not drawn) [TG-13] | > 50 µM | > 7.5 µM | –
CC(C)=CCOc1c(C)c(C)c2c(c1C)CCC(C)(COc1ccc(/C=C3\SC(=O)NC3=O)cc1)O2 (stereo not drawn) [TG-14] | 14.5 µM | 7 µM | –
O=C1NC(=O)/C(=C/c2ccc(OCC3CCc4ccccc4C3)cc2)S1 (stereo not drawn) [TG-15] | 37 µM | – | –
COc1cc(/C=C2\SC(=O)NC2=O)ccc1OCC1(C)CCc2c(C)c(OCC=C(C)C)c(C)c(C)c2O1 (stereo not drawn) [TG-16] | 15 µM | – | –
CC(C)=CCOc1c(C)c(C)c2c(c1C)CCC(C)(COc1ccc(/C=C3\SC(=O)NC3=O)cc1C)O2 (stereo not drawn) [TG-17] | 14.5 µM | – | –
C=CCOc1c(C)c(C)c2c(c1C)CCC(C)(COc1ccc(/C=C3\SC(=O)NC3=O)cc1Br)O2 (stereo not drawn) [TG-27] | 28 µM | > 7.5 µM | –
C=CCOc1c(C)c(C)c2c(c1C)CCC(C)(COc1ccc(/C=C3\SC(=O)NC3=O)cc1OC)O2 (stereo not drawn) [TG-28] | 14.5 µM | – | –
C=CCOc1c(C)c(C)c2c(c1C)CCC(C)(COc1ccc(/C=C3\SC(=O)NC3=O)cc1C)O2 (stereo not drawn) [TG-29] | 23.5 µM | – | –
CC(C)=CCOc1c(C)c(C)c2c(c1C)CCC(C)(COc1ccc(/C=C3\SC(=O)NC3=O)cc1F)O2 (stereo not drawn) [TG-30] | 12.5 µM | – | –
CC(C)=CCOc1c(C)c(C)c2c(c1C)CCC(C)(COc1ccc(/C=C3\SC(=O)NC3=O)cc1-c1ccc(C(F)(F)F)cc1)O2 (stereo not drawn) [TG-31] | > 50 µM | > 7.5 µM | –
CC(C)=CCOc1c(C)c(C)c2c(c1C)CCC(C)(COc1ccc(/C=C3\SC(=O)NC3=O)cc1-c1ccc(F)cc1)O2 (stereo not drawn) [TG-32] | 19.5 µM | > 7.5 µM | –

Compound | IC50 (MCF-7 cells) | IC50 (cyclin D1) | further results
CCc1ccc(-c2cc(/C=C3\SC(=O)NC3=O)ccc2OCC2(C)CCc3c(C)c(OCC=C(C)C)c(C)c(C)c3O2)cc1 (stereo not drawn) [TG-33] | > 50 µM | > 7.5 µM | –
CC(C)=CCOc1c(C)c(C)c2c(c1C)CCC(C)(COc1c(Br)cc(/C=C3\SC(=O)NC3=O)cc1Br)O2 (stereo not drawn) [TG-34] | 15.5 µM | – | –
CC(C)=CCOc1c(C)c(C)c2c(c1C)CCC(C)(COc1ccc(/C=C3\SC(=O)NC3=O)cc1[N+](=O)[O-])O2 (stereo not drawn) [TG-35] | 38 µM | – | –
CC(C)=CCOc1c(C)c(C)c2c(c1C)CCC(C)(COc1ccc(C=C(C#N)C#N)cc1Br)O2 (stereo not drawn) [TG-36] | > 50 µM | > 7.5 µM | –
CC(C)=CCOc1c(C)c(C)c2c(c1C)CCC(C)(COc1ccc(/C=C/C(=O)O)cc1Br)O2 (stereo not drawn) [TG-37] | 34 µM | > 7.5 µM | –
CCOC(=O)C(C)(C)C(O)c1ccc(OCC2(C)CCc3c(C)c(OCC=C(C)C)c(C)c(C)c3O2)c(Br)c1 (stereo not drawn) [TG-38] | > 50 µM | – | –
CC(C)=CCOc1c(C)c(C)c2c(c1C)CCC(C)(COc1ccc(C(O)C(C)(C)C(=O)O)cc1Br)O2 (stereo not drawn) [TG-39] | 46 µM | > 7.5 µM | –
CCOC(=O)C(=Cc1ccc(OCC2(C)CCc3c(C)c(OCC=C(C)C)c(C)c(C)c3O2)c(Br)c1)C(=O)OCC (stereo not drawn) [TG-41] | > 50 µM | > 7.5 µM | –
CC(C)=CCOc1c(C)c(C)c2c(c1C)CCC(C)(COc1ccc(C=C(C(=O)O)C(=O)O)cc1Br)O2 (stereo not drawn) [TG-42] | > 50 µM | > 7.5 µM | –
CC(C)=CCOc1c(C)c(C)c2c(c1C)CCC(C)(COc1ccc(/C=C3\SC(=O)NC3=O)c3ccccc13)O2 (stereo not drawn) [TG-43] | 14.5 µM | – | –
COc1cc(/C=C2\SC(=O)NC2=O)cc(Br)c1OCC1(C)CCc2c(C)c(OCC=C(C)C)c(C)c(C)c2O1 (stereo not drawn) [TG-44] | 14.5 µM | > 7.5 µM | –
CCOc1cc(/C=C2\SC(=O)NC2=O)ccc1OCC1(C)CCc2c(C)c(OCC=C(C)C)c(C)c(C)c2O1 (stereo not drawn) [TG-45] | 13 µM | – | –
CC(C)=CCOc1c(C)c(C)c2c(c1C)CCC(C)(COc1ccc(/C=C3\SC(=S)NC3=O)c3ccccc13)O2 (stereo not drawn) [TG-46] | 37.3 µM | – | –
C=CCOc1c(C)c(C)c2c(c1C)CCC(C)(COc1cccc(/C=C3\SC(=O)NC3=O)c1)O2 (stereo not drawn) [TG-51] | 40 µM | – | –
C=CCOc1c(C)c(C)c2c(c1C)CCC(C)(COc1c(C)cc(/C=C3\SC(=O)NC3=O)cc1C)O2 (stereo not drawn) [TG-52] | 10.5 µM | – | –
C=CCOc1c(C)c(C)c2c(c1C)CCC(C)(COc1ccc(/C=C3\SC(=O)NC3=O)c3ccccc13)O2 (stereo not drawn) [TG-53] | 14.5 µM | – | –
C=CCOc1c(C)c(C)c2c(c1C)CCC(C)(COc1c(Br)cc(/C=C3\SC(=O)NC3=O)cc1OC)O2 (stereo not drawn) [TG-54] | 17.5 µM | – | –
C=CCOc1c(C)c(C)c2c(c1C)CCC(C)(COc1ccc(/C=C3\SC(=O)NC3=O)cc1OCC)O2 (stereo not drawn) [TG-55] | 17 µM | > 7.5 µM | –
CC(C)=CCOc1c(C)c(C)c2c(c1C)CCC(C)(COc1ccc(/C=C3\SC(=O)NC3=O)cc1Br)O2 (stereo not drawn) [TG-88] | 14.5 µM | > 7.5 µM | –
CC[C@H](C)[C@H](NC(=O)[C@H]([C@@H](C)CC)N(C)C(C)=O)C(=O)N[C@H](C(=O)N[C@@H](CC(C)C)C(=O)[C@@]1(C)CO1)[C@@H](C)O [epoxomicin, reference compound] | – | – | effect of co-treatment on TG- and Δ2-TG-induced cyclin D1 ablation (cyclin D1): effective in rescuing
CC(=O)N[C@@H](CSC(=O)[C@]1([C@@H](O)C(C)C)NC(=O)[C@H](C)[C@@H]1O)C(=O)O [lactacystin, reference compound] | – | – | effect of co-treatment on TG- and Δ2-TG-induced cyclin D1 ablation (cyclin D1): effective in rescuing

From patent US7566787B2, “Small molecule cyclin D1 ablative agents” (The Ohio State University, priority 2004, dated 2009)
